“Also recorded” adds a separate entry of the source. Ends that are not written are not given here.
How the values were obtained:
MN9D dopaminergic cells = experiment: TUNEL assay, protection against 6-OHDA toxicity; type: cell-based; settings: 1 ng/mL for 1 hour before 100 μM 6-OHDA for 15 min; at 24 h
Experimental: MN9D Cell Cultures: The MN9D cell line has been described by Choi (1991) Brain Res. 552:67-76 and was a gift from Michael Zigmond. Cells were cultured in DMEM supplemented with 10% Fetal Bovine Serum (FBS, Hyclone), 50 U/mL penicillin and streptomycin. For experiments, the cells were plated on 24-well poly-D-lysine in DMEM with 1% (v/v) penicillin-streptomycin. The cells were grown at 37° C. in 5% CO2.
Terminal dUTP Nick-End Labeling (TUNEL) Assay in MN9D Cells: After treatment with DNSP-11, MN9D cells were fixed and labelled to assess degenerative nuclear changes as indicated by the extent of high-molecular weight DNA strand breaks. DNA fragmentation was detected by using steptavidin-horseradish peroxidise conjugate followed by the substrate diaminobenzidine (DAB) generating a colored precipitate. Ratios between apoptotic and total cells were determined (4 random fields/well; 4 wells/ group). Experiments were repeated 3 times.
To evaluate DNSP-11's neuroprotective properties, DNSP-11 was compared to GDNF in its protection against 6-OHDA-induced toxicity in the dopaminergic cell line, MN9D. MN9D dopaminergic cells were incubated for 1 hour with either citrate buffer (control), 1 ng/mL of DNSP-11 or GDNF prior to 100 μM 6-OHDA exposure for 15 min. […]

[1] = test system: normal young male Fischer 344 rats; experiment: Striatal microdialysis 28 days after intranigral DNSP-11; type: in vivo, rat
Experimental: Infusion Delivery of DNSP-11 or Vehicle: Isoflurane anesthetized (1.5-2.5%) F344 rats received 5 μl of 6 μg/μL DNSP-11 solution or citrate buffer vehicle solution in a blinded manner. Treatment was delivered to the nigral cell bodies using the same stereotaxic coordinates and protocol for solution delivery as in studies of GDNF.
Reverse Microdialysis: Reverse in vivo microdialysis was accomplished using methods and brain coordinates described by Hebert et al. (1996)J Pharmacol. Exper. Ther. 279:1181-1190. CMA 11 microdialysis probes with a 4.0 mm membrane length and 6 kDa molecular weight cut-off were placed within the rat striatum.
Prior studies with GDNF have shown robust effects on both potassium and amphetamine-evoked release 28 days after a single injection into the rat substantia nigra (Hebert et al. (1997) J. Pharm. Exp. Thera. 282: 760) indicating the functional effects of this trophic factor on dopamine signaling in the normal rat striatum. In the present experiment, 30 μg of DNSP-11 was injected into the right substantia nigra of normal young male Fischer 344 rats. Twenty-eight days after injection, in vivo microdialysis was performed in these animals to investigate dopamine neurochemistry in the ipsilateral striatum. […] Winkler et al. (1996) J. Neurosci. 16: 7206; Hebert et al. (1996) J Pharmacol Exper Ther. 279: 1181-1190 (1996).

B65 cells = experiment: JC-1 mitochondrial membrane potential assay; type: cell-based
Experimental: (§1) MN9D cells and B65 cells were cultured in Dulbecco's Modified Eagle's Medium (DMEM; 11995 (containing pyridoxol HCl); Sigma, St. Louis, Mo.) supplemented with 10% fetal bovine serum (HyClone, Logan, Utah), 50 U/mL penicillin and streptomycin. For each assay the cells were treated with mitochondrial-specific environmental toxins, i.e., MPP+, rotenone, and/or TaClo, and with or without DNSP-11. After incubation with the toxins, the cells were plated on 24-well poly-D-lysine plates (50,000 cells/well) for TUNEL assay (as described below) or 100,000 cell/well for caspase-3 assay in DMEM medium with 1% (v/v) penicillin-streptomycin only (as described below).
(§2) MN9D and B65 cells were treated with either 50 nM, 100 nM, 250 nM, 500 nM, 2.5 μM or 5 μM rotenone, 50 nM, 100 nM, 250 nM 1-methyl-4-phenylpyridinium (MPP+), or 10 μM , 25 μM, 50 μM, 100 μM, 150 μM or […]-1,2,3,4-tetrahydro-β-carboline (TaClo), for 1 to 12 hours and then incubated at 37° C. in 5% CO2 following pretreatment (1 to 30 minutes) with or without 100 nM or 10 nM DNSP-11. After treatment with rotenone, MPP+ or TaClo and incubation with DNSP-11, the cells were incubated for 30 minutes at 37° C. in a 5% CO2 incubator in the presence of 10 μM of the green fluorescent JC-1 (5,5′, 6,6′-tetrachloro-1,1′,3,3′-tetraethylbenzimidazolyl-cabo-cyanine iodine, T-3168 (Invitrogen)) and then washed in Locke's solution. Optical measurements were acquired with excitation at 485 nm and emission at 527 nm, and 590 nm. The levels of fluorescence at each emission wavelengths were quantified and ratio of measurements was assessed. The pertinent data are given as mean±S.E.M. for mean optical measurements. The values are expressed as percent of the mean control values ±S.E.M. and analyzed using ANOVA.

MN9D cells = experiment: JC-1 mitochondrial membrane potential assay; type: cell-based
Experimental: as §1, §2

[2] = ipsilateral striatum, 28 days after 30 μg into right substantia nigra
[3] = MPP+, rotenone or TaClo 1 to 12 hours, pretreatment with 10 nM or 100 nM DNSP-11

PPEAPAEDRSL-NH2 [DNSP-11, PPEAPAEDRSL-amide]
percent of TUNEL positive cells (MN9D dopaminergic cells): significant reduction
Basal DA ([1]; 28 days after delivery, vehicle 26.0±2.7 nM): 45.8 ± 7.7 nM
Basal concentrations of HVA ([1]; 28 days after delivery, vehicle 2419±251 nM): 4.516 ± 0.502 µM
Basal concentrations of DOPAC ([1]; 28 days after delivery, vehicle 3355±338 nM): 6.544 ± 0.836 µM
resting levels of HVA, increase vs controls [1, 2]: over 100%
resting levels of dopamine, increase vs controls [1, 2]: over 100%
mitochondrial potential, protection from toxins (B65 cells; [3]): protects the cells; also recorded: significant protection
mitochondrial potential, DNSP-11 alone (B65 cells; no toxin): no significant effect
mitochondrial potential, protection from toxins (MN9D cells; [3]): protects the cells; also recorded: significant protection
mitochondrial potential, DNSP-11 alone (MN9D cells; no toxin): no significant effect
